{
  "source": "paper PMC5534107",
  "about": "“Sensitization of ASIC3 by proteinase-activated receptor 2 signaling contributes to acidosis-induced nociception” (Journal of Neuroinflammation, 2017)",
  "key": {"[1]": {"test_system": "ASIC3-like currents in rat DRG neurons", "assay": "Voltage clamp of proton-evoked ASIC3-like currents in acutely isolated rat DRG neurons", "format": "cell-based", "settings": "10^−5 M for 1 min; capsazepine 10 μM present; −60 mV; n = 9", "from_the_text": "The experimental protocol was approved by the animal research ethics committee of Hubei University of Science and Technology (No. 2016–67). All procedures conformed to international guidelines on the ethical use of animals, and every effort was made to minimize the number of animals used and their sufferings. Five- to 6-week-old Sprague–Dawley male rats were anesthetized with 7% chloral hydrate and then decapitated. The DRGs were taken out and transferred immediately into Dulbecco’s modified Eagle’s medium (DMEM, Sigma) at pH 7.4. After the removal of the surrounding connective tissues, the DRGs were minced with fine spring scissors and the ganglion fragments were placed in a flask containing 5 ml of DMEM in which trypsin (type II-S, Sigma) 0.5 mg/ml, collagenase (type I-A, Sigma) 1.0 mg/ml, and DNase (type IV, Sigma) 0.1 mg/ml had been dissolved and incubated at 35 °C in a shaking water bath for 25–30 min. Soybean trypsin inhibitor (type II-S, Sigma) 1.25 mg/ml was then added to stop trypsin digestion. The incubating solution was then replaced by external solution. Dissociated neurons were placed into a 35-mm Petri dish and kept for at least 1 h in normal external solution before the start of electrophysiological experiments. After plating of the DRG neurons, the neurons were used for experiments within 24 h. The neurons selected for electrophysiological experiment were 15–35 μm in diameter.\nWhole-cell patch clamp and voltage clamp recordings were carried out at room temperature (22–25 °C) using a MultiClamp-700B amplifier and Digidata-1440A A/D converter (Axon Instruments, CA, USA). Recording pipettes were pulled using a Sutter P-97 puller (Sutter Instruments, CA, USA). The micropipettes were filled with internal solution containing (mM) KCl 140, MgCl2 2.5, HEPES 10, EGTA 11, and ATP 5; its pH was adjusted to 7.2 with KOH, and osmolarity was adjusted to 310 mOsm/L with sucrose. Cells were bathed in an external solution containing (mM) NaCl 150, KCl 5, CaCl2 2.5, MgCl2 2, HEPES 10, D-glucose 10; its osmolarity was adjusted to 330 mOsm/L with sucrose and its pH to 7.4. The resistance of the recording pipette was in the range of 3–6 MΩ. A small patch of membrane underneath the tip of the pipette was aspirated to form a giga seal, and then, a negative pressure was applied to rupture it, thus establishing a whole-cell configuration. The series resistance was compensated for by 70–80%. The adjustment of capacitance compensation was also done before recording the membrane currents. […]\n(§1) Drugs purchased from Sigma and used in the experiments include hydrochloric acid, 2-furoyl-LIGRLO-NH2 (a PAR2-activating peptide (PAR2-AP)), trypsin, FSLLRY-NH2, APETx2, and capsazepine. […] The application pipette tips were positioned ∼30 μm away from the recorded neurons. […]"}, "[2]": {"test_system": "heteromeric ASIC2b+3 channels expressed with PAR2 in CHO cells", "assay": "Whole-cell patch clamp, heteromeric ASIC2b+3 channels expressed with PAR2 in CHO cells", "format": "cell-based, Chinese hamster", "settings": "PAR2-AP 10^−5 M for 1 min; I pH 6.6; ASIC3:other subunit 1:3; n = 8", "procedure": "(§2) ASIC3, ASIC1a, ASIC1b, ASIC2b, and PAR2 complementary DNAs (cDNAs) were used for heterologous expression in CHO cells as described previously (Wang et al., 2013). In brief, CHO cells were cultured at 37 °C in a humidified atmosphere of 5% CO2 and […] and passaged twice a week. Transient transfection of CHO cells was performed using HilyMax liposome transfection reagent (Dojindo Laboratories). CHO cells were maintained in F-12 Nutrient Mixture (added 1.176 g of NaHCO3/L medium) supplemented with 10% fetal bovine serum and 1% gluta-MAXTM-1 (100×; Invitrogen). When ASIC3 and PAR2 cDNAs were co-transfected, the ratio was kept at 1:1. All plasmids used contained, in addition to the desired ASIC3 cDNA, the coding sequence for enhanced green fluorescent protein to aid identification of transfected cells. Electrophysiological measurements were performed 24–48 h after transfection.\n(§3) Whole-cell patch clamp and voltage clamp recordings were carried out at room temperature (22–25 °C) using a MultiClamp-700B amplifier and Digidata-1440A A/D converter (Axon Instruments, CA, USA). […]\nas §1"}, "[3]": {"test_system": "heteromeric ASIC1b+3 channels expressed with PAR2 in CHO cells", "assay": "Whole-cell patch clamp, heteromeric ASIC1b+3 channels expressed with PAR2 in CHO cells", "format": "cell-based, Chinese hamster", "settings": "PAR2-AP 10^−5 M for 1 min; I pH 6.6; ASIC3:other subunit 1:3; n = 8", "procedure": "as §2, §3, §1"}},
  "data": [
    {"substance": "2-furoyl-LIGRLO-NH2 [PAR2-AP]", "values": [
      {"measurement": "increase of peak amplitude of I pH 6.6 in DRG neurons after agonist pretreatment", "setting": "[1]", "value": "57.1 ± 9.8", "unit": "%"},
      {"measurement": "increase of peak current of heteromeric ASIC2b+3 channels", "setting": "[2]", "value": "68.1 ± 7.3", "unit": "%"},
      {"measurement": "increase of peak current of heteromeric ASIC1b+3 channels", "setting": "[3]", "value": "55.2 ± 5.9", "unit": "%"}
    ]}
  ]
}
